Assay in all cases: NCI tumour cell line growth inhibition, 48 h
Experiment [1] deals with CCRF-CEM.
For experiment [2], the system named is EKVX.
Experiment [3] concerns HL-60.
In experiment [4] the test system is HOP-92.
The test system of experiment [5] is IGROV-1.
The subject of experiment [6] is K562.
Experiment [7] has as its system M14.
The test system of experiment [8] is NCI-H226.
The test system of experiment [9] is NCI-H23.
The subject of experiment [10] is NCI-H460.
For experiment [11], the system named is OVCAR-3.
For experiment [12], the system named is RXF 393.
Experiment [13] relates to SF-295.
For experiment [14], the system named is SN12C.
Experiment [15] relates to SNB-19.
The test system of experiment [16] is SNB-75.
For experiment [17], the system named is UACC-257.
Experiment [18] concerns UO-31.
In experiment [19] the test system is LOX IMVI.
Experiment [20] relates to HCC 2998.

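Five compound concentrations were applied to cells in 96-well plates for 48 hours; endpoints were derived by simple linear interpolation of the resulting dose-response curve. GI50 marks 50% less growth.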 The source made the active and inactive calls. Rule as the data show it: active = GI50 up to about 1.1 µM and inactive = higher.

For the compound `COc1cc(C2c3c(ccc4ccccc34)C(=O)C3CCC(=O)N32)cc(OC)c1O` (stereo not drawn), the GI50 in [1] is 19.9 µM (inactive); in experiment [2] it was > 25 µM (inactive); in experiment [3], > 25 µM (inactive); in experiment [4], > 25 µM (inactive); in experiment [5], > 25 µM (inactive); in experiment [6], > 25 µM (inactive). The GI50 in experiment [7], in experiment [8], in experiment [9], in experiment [10], in experiment [11] and in experiment [12] was > 25 µM (inactive) each time. For the same compound, the GI50 in experiment [13], in experiment [14], in [15], in [16], in experiment [17] and in experiment [18] was > 25 µM (inactive) in each case.
Turning to `O=C(O)CNC(=O)C1NC(C(F)(F)F)(C(F)(F)F)OC1(C(F)(F)F)C(F)(F)F` (stereo not drawn), the GI50 in experiment [2], in [3], in experiment [4], in experiment [5], in experiment [6] and in experiment [19] was > 100 µM (inactive) throughout. In addition, the GI50 in [7], in experiment [8], in experiment [9], in experiment [10], in [11] and in experiment [12] was > 100 µM (inactive) throughout. The GI50 in [13] was 92.3 µM (inactive); in experiment [14], > 100 µM (inactive); in experiment [15] it was > 100 µM (inactive); in [16], > 100 µM (inactive); in experiment [17], > 100 µM (inactive); in experiment [18] it was > 100 µM (inactive).
For the compound `CCOC(=O)C1CN(C2CC2)CCC1=O` (stereo not drawn), the GI50 in [1], in experiment [2], in [20], in experiment [3], in [5] and in [6] was > 100 µM (inactive) each time. The GI50 in [19], in [7], in experiment [8], in experiment [9], in experiment [10] and in experiment [11] was > 100 µM (inactive) each time. For the same compound, the GI50 in [12], in experiment [13], in experiment [14], in experiment [15], in experiment [16] and in [17] was > 100 µM (inactive) in each case. The GI50 in experiment [18] is > 100 µM (inactive).
Regarding `COC(=O)N[C@@H]1C[C@H]2CC[C@]1(O[Si](C(C)C)(C(C)C)C(C)C)C(=O)C2`, the GI50 in experiment [1] was 18 µM (inactive); in experiment [2], 15.4 µM (inactive); in experiment [3], 16.9 µM (inactive); in experiment [4], 17.5 µM (inactive); in experiment [5] it was 13.6 µM (inactive); in experiment [6], > 100 µM (inactive). The GI50 in experiment [7] was 18.5 µM (inactive); in [8] it was 14.2 µM (inactive); in experiment [9] it was 17.1 µM (inactive); in [10] it was 20.7 µM (inactive); in experiment [11], 17.7 µM (inactive); in experiment [13] it was 14.7 µM (inactive). Moreover, the GI50 in experiment [14] is 33.5 µM (inactive); in experiment [15], 18.1 µM (inactive); in experiment [16] it was 20 µM (inactive); in [17] it was 11.8 µM (inactive); in experiment [18], 14.1 µM (inactive).
With `N#Cc1nc(C(O)c2ccccc2)oc1N` (stereo not drawn), the GI50 in experiment [1], in experiment [2], in experiment [3], in [4], in experiment [5] and in [6] was > 100 µM (inactive) in each case. The GI50 is > 100 µM (inactive) in experiment [19]; > 100 µM (inactive) in experiment [7]; > 100 µM (inactive) in experiment [8]; > 100 µM (inactive) in experiment [9]; > 100 µM (inactive) in experiment [11]; 17.9 µM (inactive) in experiment [12]. The GI50 in [13], in [14], in experiment [15], in experiment [16], in [17] and in experiment [18] was > 100 µM (inactive) each time.
Regarding `CCCCNc1nc(N)nc(Nc2ccc(Br)cc2)c1N=O`, the GI50 in experiment [1] was 42.1 µM (inactive); in [2], > 100 µM (inactive); in [20] it was 87.7 µM (inactive); in [3] it was 17.9 µM (inactive); in experiment [5], > 100 µM (inactive); in experiment [6] it was 38.9 µM (inactive). Moreover, the GI50 was 31.6 µM (inactive) in [19]; > 100 µM (inactive) in [7]; > 100 µM (inactive) in [8]; > 100 µM (inactive) in [9]; 70 µM (inactive) in [10]; 56.5 µM (inactive) in experiment [11]. The GI50 in experiment [12] is 32.7 µM (inactive); in [14], 58.7 µM (inactive); in experiment [15], > 100 µM (inactive); in [16] it was 52.2 µM (inactive); in experiment [17] it was > 100 µM (inactive); in experiment [18], 28.1 µM (inactive).
Turning to `N=C(N)NC(=N)Nc1c(F)c(F)c(F)c(F)c1F`, the GI50 in experiment [2] was 44.1 µM (inactive); in experiment [4], 36.7 µM (inactive); in experiment [5], > 100 µM (inactive); in experiment [6], 41.5 µM (inactive); in [7], 21.1 µM (inactive); in experiment [8], > 100 µM (inactive). The GI50 is 87.1 µM (inactive) in experiment [9]; 90.4 µM (inactive) in [10]; > 100 µM (inactive) in experiment [11]; > 100 µM (inactive) in [12]; > 100 µM (inactive) in experiment [13]; > 100 µM (inactive) in [14]. In addition, the GI50 is > 100 µM (inactive) in experiment [15], > 100 µM (inactive) in [16], 23.6 µM (inactive) in experiment [17] and > 100 µM (inactive) in experiment [18].
For `CC1(C)CC(c2c[nH]c3ccccc23)=CC2=Nc3ccccc3C21O` (stereo not drawn), the GI50 in experiment [1] was > 100 µM (inactive); in [2], 63.1 µM (inactive); in experiment [3] it was > 100 µM (inactive); in [4], 15 µM (inactive); in [5], > 100 µM (inactive); in experiment [6] it was 91.6 µM (inactive). For the same compound, the GI50 is > 100 µM (inactive) in [19]; > 100 µM (inactive) in experiment [7]; 15.2 µM (inactive) in experiment [8]; 34 µM (inactive) in experiment [9]; > 100 µM (inactive) in experiment [10]; 33.3 µM (inactive) in experiment [11]. Also, the GI50 in experiment [12] is 37.8 µM (inactive); in [13] it was 38.5 µM (inactive); in experiment [14], > 100 µM (inactive); in experiment [15], 65.2 µM (inactive); in [16], 5.94 µM (inactive); in experiment [17], > 100 µM (inactive). Also, the GI50 in [18] was > 100 µM (inactive).
Consider `O=C(O)C(C1NCCS1)N1Cc2ccccc2C1` (stereo not drawn), for which the GI50 in experiment [1], in [2], in experiment [3], in experiment [4], in experiment [5] and in [6] was > 100 µM (inactive) in each case. In addition, the GI50 in [19], in [7], in experiment [8], in [9], in experiment [10] and in experiment [11] was > 100 µM (inactive) in each case. Moreover, the GI50 in [12], in experiment [13], in experiment [14], in experiment [15], in experiment [16] and in experiment [17] was > 100 µM (inactive) throughout. The GI50 in [18] is > 100 µM (inactive).
On to `CC(C)=NOC(=O)OC[C@H]1O[C@@H](n2cnc3c(N)ncnc32)C(O)C1O` (stereo partly drawn), for which the GI50 was > 100 µM (inactive) in experiment [1]; > 100 µM (inactive) in experiment [2]; > 100 µM (inactive) in experiment [20]; 45.7 µM (inactive) in experiment [3]; > 100 µM (inactive) in experiment [5]; 30.1 µM (inactive) in experiment [6]. In addition, the GI50 was 44.9 µM (inactive) in [19]; 87.7 µM (inactive) in experiment [7]; > 100 µM (inactive) in experiment [8]; > 100 µM (inactive) in experiment [9]; 40.9 µM (inactive) in experiment [10]; > 100 µM (inactive) in experiment [11]. Besides, the GI50 in [12], in experiment [13], in experiment [14], in experiment [15], in [16] and in [18] was > 100 µM (inactive) throughout.
For `c1ccc2c(CNCCCCCCCCCCCCNCc3cccc4ccccc34)cccc2c1`, the GI50 is 1.26 µM (inactive) in experiment [1]; 3.1 µM (inactive) in [2]; 1.47 µM (inactive) in experiment [3]; 1.88 µM (inactive) in experiment [4]; 1.84 µM (inactive) in experiment [5]; 0.467 µM (active) in [6]. Also, the GI50 in experiment [19] is 1.22 µM (inactive); in experiment [7] it was 1.85 µM (inactive); in [8], 2.39 µM (inactive); in [9], 1.51 µM (inactive); in experiment [10], 1.53 µM (inactive); in [11] it was 1.85 µM (inactive). In addition, the GI50 in [12] was 1.36 µM (inactive); in experiment [13], 19.5 µM (inactive); in experiment [14], 3.53 µM (inactive); in experiment [16], 1.79 µM (inactive); in experiment [17], 1.78 µM (inactive); in experiment [18], 1.64 µM (inactive).

(Values after ChEMBL document CHEMBL1201862, “PubChem BioAssay data set” (2004).)
